Test results from patent US5428048A, “Aryl-N-hydroxyureas as inhibitors of 5-lipoxygenase and anto-arteriosclerotic agents” (American Home Products Corporation, priority 1993, dated 1995).

Experiments:
[1] = tested on: LTB4 Synthesis; assay: Reverse Passive Arthus Reaction (pleurisy, LTB4 in pleural exudate); format: in vivo, male Lewis rats; conditions: 25 mg/kg p.o.
Procedure: 3. Reverse Passive Arthus Reaction
A reverse passive Arthus reaction is induced in the pleural cavity of male Lewis rats (150°-200 g; fasted overnight prior to use) by the intravenous administration of bovine serum albumin (BSA; 4 mg/0.2 ml) followed 30 minutes later by the injection of rabbit anti-BSA (1 mg/0.2 ml; lyophilized IgG fraction; Organon Teknika, West Chester, Pa.) into the right pleural space under halothane anesthesia. Drugs or vehicle (0.5% Tween-80) control are administered orally in a volume of 1 ml/100 g body weight at 1 hour prior to the anti-BSA. Animals are sacrificed at either the time of peak eicosanoid production (i.e. 5 minutes after anti-BSA for immunoreactive TxB2, 10 minutes for immunoreactive LTB4, 20 minutes for immunoreactive LTC4) or at the time of peak neutrophil infiltration (4 hours after anti-BSA) by CO2 inhalation. The pleural cavity is then exposed, the fluid exudate removed by gentle vacuum aspiration and the volume of exudate is recorded. For the determination of cellular infiltration, the pleural cavity is rinsed with 3 ml of 0.1% EDTA in sterile saline, and the recovered wash is pooled with the exudate. Cell number is determined on a model ZBI Coulter counter. For determination of eicosanoid production, undiluted pleural exudate is microfuged and the supernatant is extracted with ethanol (8-10 times volume). Extracts are either stored at -20° C., or are evaporated to dryness under a stream of N2 and reconstituted in radioimmunoassay (RIA) buffer.
Eicosanoids are quantitated by RIA according to the procedure specified by the RIA kit manufacturer (Advanced Magnetics, Cambridge, MA). Briefly, 100 μl of ^3 H-labeled eicosanoid and 100 μl of specific antibody ,are sequentially added to 100 μl of extracted pleural exudate in BGG-phosphate buffer which contains 0.01M phosphate, 0.1% bovine gamma globulin and 0.1% sodium azide at pH 7.0. Antibody-bound eicosanoid is separated from unbound eicosanoid by the addition of 750 μl of dextran (0.4%)-coated charcoal (Norit A) containing 0.1% sodium azide. The mixture is centrifuged at 2000 RPM at 5° C. for 15 minutes to pellet the charcoal and adsorbed unbound eicosanoid. Antibody-bound labeled eicosanoid is quantitated by counting in a liquid scintillation counter, and is correlated to concentration by a standard curve.

[2] = tested on: Lipoxygenase; assay: Ex-Vivo Measurement of Lipoxygenase Inhibition in Orally Dosed Rats (LTB4 in A23187-stimulated blood); set-up: species or system Male Sprague Dawley rats; conditions: ex vivo rat, p.o., dose 10 (mg/kg), pretreatment 3 hr
Procedure: 2. […] After an interval of 3 or 6 hours, the rats were anesthetized with metofane (n =4/group) and blood collected in heparinized tubes. White blood cell counts and differentials were made. One ml of blood from each animal was placed in a 5 ml plastic tube in a shaker bath at 37° C. A23187 at a final concentration of 10 μM was added to the blood and the blood vortexed and incubated for 15 min at 37° C. with gentle shaking. Incubation was terminated by vortexing sample and centrifuging immediately at 1200 xG for 15 min at 4° C. The plasma was transferred to 15 ml plastic tubes each containing 8 ml of methanol to precipitate protein followed by vortexing. The samples were stored at -70° C. overnight and the next day the samples were centrifuged at 800 xG for 15 min to pellet the precipitate. The samples were dried in a Savant SpeedVac Concentrator Model SVC 200H and reconstituted to the original volume with cold RIA or ELISA buffer. The reconstituted samples were stored at -70° C. until assayed. The assay for LTB4 was perforated according to the directions of the [^3 H]RIA kit or ELISA kit (Seragen). The total metabolite level in 1 ml of blood is calculated and reported as ng/10^6 neutrophils. Significance is determined by a one-way analysis of variance with LSD comparisons to control (p<0.05).

[3] = molecular target: T1, 5-Lipoxygenase (Homo sapiens, UniProt P09917); assay: Inhibition of 5-Lipoxygenase in Human Whole Blood (ionophore A23187-stimulated LTB4); format: cell-based
T1 construct: endogenous in cells; host or cells: whole blood of male human donors (results per 10^6 neutrophils)
T1 sequence (P09917 1-674): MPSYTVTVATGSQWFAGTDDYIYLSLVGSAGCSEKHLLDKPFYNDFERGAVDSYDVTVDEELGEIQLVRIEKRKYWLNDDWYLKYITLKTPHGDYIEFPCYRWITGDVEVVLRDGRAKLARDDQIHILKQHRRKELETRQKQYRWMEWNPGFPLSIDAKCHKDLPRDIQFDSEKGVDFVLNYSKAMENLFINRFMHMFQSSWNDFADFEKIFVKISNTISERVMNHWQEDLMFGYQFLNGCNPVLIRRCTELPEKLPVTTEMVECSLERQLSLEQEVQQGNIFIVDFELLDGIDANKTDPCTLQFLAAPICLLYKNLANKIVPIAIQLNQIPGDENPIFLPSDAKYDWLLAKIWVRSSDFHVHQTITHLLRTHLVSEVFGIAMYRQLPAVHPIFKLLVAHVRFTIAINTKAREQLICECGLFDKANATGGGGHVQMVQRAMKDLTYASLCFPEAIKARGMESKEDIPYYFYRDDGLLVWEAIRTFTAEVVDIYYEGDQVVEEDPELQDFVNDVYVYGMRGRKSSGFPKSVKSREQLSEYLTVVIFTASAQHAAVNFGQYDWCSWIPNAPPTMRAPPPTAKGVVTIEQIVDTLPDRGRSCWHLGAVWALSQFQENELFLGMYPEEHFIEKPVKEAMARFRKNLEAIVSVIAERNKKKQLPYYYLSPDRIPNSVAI
Procedure: 1. Inhibition of 5-Lipoxygenase in Human Whole Blood
Blood is obtained in 50-100 ml quantities from male donors. White blood cell counts and differentials are made. Two ml of blood are placed in a 15 ml polypropylene test tube. Test compounds are solubilized in dimethylsulfoxide and diluted in 1:10 in 10% bovine serum albumin in phosphate buffered saline, pH 7.4 resulting in a final dimethylsulfoxide concentration of 0.1% in the blood. Then, solutions of test compounds are added to the blood in a shaking water bath at 37° C. for 10 minutes prior to the addition of 30 μM calcium ionophore (A23187, Sigma). After ionophore administration, whole blood samples are mixed and incubated for 20 minutes at 37° C. in a shaking water bath. Incubation is terminated by placing samples in an ice bath and immediately adding ethylene glycol-bis-(β-aminoethyl ether)-N, N,N',N'-tetraacetic acid (10 mM). Samples are mixed and centrifuged at 1200×g for 15 minutes at […]. Preparation of samples for evaluation by RIA or ELISA is carded out by the following protocol. Plasma is removed from sample tubes, placed in 15 ml polypropylene test tubes containing 8 ml methanol, and then vortexed to precipitate protein. Samples are stored at -70° C. overnight. The next day, samples are centrifuged at 200×g for 15 minutes at 4° C. to pellet the precipitate. Samples are dried in a Savant SpeedVac Concentrator, Model SVC 200H, reconstituted to original volume with ice cold RIA or ELISA buffer, and stored at -70° C. until assayed. The assay for eicosanoids (LTB4, TxB2, and PGE2) is performed as described by the manufacturer of the [^3 H]-RIA kit or ELISA kit (LTB4 -Amersham, TxB2 and PGE2 - Caymen Chemical).
The total eicosanoid level in 2 ml of blood is calculated and reported as ng/10^6 neutrophils. Significance is determined by a one-way analysis of variance with least significant difference (LSD) comparisons to control (p≤0.05) and IC50 's (μM) are determined by regression analysis (Finney, 1978). Drug effects are expressed as percent change from control values.

[4] = tested on: Low Density Lipoprotein; assay: Inhibition of Copper Ion Mediated Oxidation of Low Density Lipoprotein; format: biochemical; conditions: Cu+2 mediated oxidation of rabbit or monkey LDL, 37° C., 90 minutes, 532 nm
Procedure: 5. Inhibition of Copper Ion Mediated Oxidation of Low Density Lipoprotein
In this in vitro assay, the inhibition of Cu^+2 mediated oxidation of rabbit or monkey LDL by an invention compound is determined spectrophotometricallly. Oxidation of LDL results in the formation of LDL-diene which absorbs light at 532 nm. Inhibition of oxidation of LDL leads to a decrease in absorbance at 532 nm.
Rabbit or monkey LDL is prepared according to the procedures of Havel, Eder and Gragdon, "The Distribution and Chemical Composition of Ultracentrifugally Separated Lipoproteins in Human Serum,: J. Clin. Invest. 34, 1345-1353 (1955) and Parhtasarathy, Wieland and Steriberg, "A Role for Endothelial Cell Lipoxygenase in the Oxidative Modification of Low Density Lipoprotein," Proc. Natl. Acad. Sci. USA 86, 1046-1050 (1989). Test compound solutions are prepared by dissolving the invention compounds in ethanol at concentrations up to 248 μM. The medium used is Dulbecco's phosphate buffered saline containing 0.5 mg/ml bovine serum albumin. For standards, 0 to 10 μl of an aqueous solution of 1,1,3,3-tetraethoxypropane (1 μmol/ml H2 O) in 4.1 ml of medium is used.
Test compound solution ([…]) is added to 4 ml of medium in incubation tubes. To each tube is added 10 μl of LDL solution and 25 μl of aqueous copper sulfate solution (1.32 mg/ml H2 O). The tubes are incubated at 37° C. for 90 minutes and the oxidation reaction quenched by addition of 1 ml of thiobarbituric acid solution (0.67% in 50% acetic acid). The tubes are heated at 90° C. for 1 hour, then chilled in an ice bath and the chromophore extracted into 2 ml of n-butanol. Absorbence is read at 532 nm and the results are reported as nmols of malondialdehyde equivalents.
Significant differences (p<0.05) are determined by the Dunnett T-test or by the Student-Newman-Keuls Test for significant differences between means. The assay is conducted using several concentrations [I] of the inhibitor test compounds. The LDL solution concentrations at different experiments were either 1.5 mg/ml, 2.5 mg/ml or 10.3 mg/ml. The IC50 is determined by non-linear regression, plotting log [I] vs. % inhibition. (Reference: K. Yagi, Biochemical Medicine 15,212-216 (1976)).

[5] = tested on: LT-dependent bronchoconstriction; assay: Inhibition of Bronchoconstriction in Guinea Pigs Induced by Exogenously Administered Antigen; format: in vivo, Male guinea pigs; conditions: 10 mg/kg i.v.
Procedure: 4. Inhibition of Brochoconstriction in Guinea Pigs Induced by Exogenously Administered Antigen
Male guinea pigs (Charles River, Wilmington, Mass.) were sensitized 3-4 weeks prior to antigen challenge by administration of 2 i.m. injections of ovalbumin, 1 into each hind limb (35 mg total). Sensitized animals (500-600 g) were fasted overnight prior to experimentation. Conscious animals were then dosed p.o. with drug or vehicle alone (0.5% Tween 80 in H2 O) at the indicated times prior to antigen challenge, or anesthetized animals were dosed i.v. with drug or vehicle alone (DMSO) 5 min prior to antigen challenge. Animals were anesthetized by urethane (2.8 g/kg i.p.). A carotid artery and jugular vein were cannulated to allow for the monitoring of blood pressure and the administration of drugs, respectively. The trachea was then cannulated and connected to a Harvard Apparatus rodent ventilator (S. Natick, Mass.). Spontaneous respiration was abolished by the administration of succinylcholine (2.5 mg/kg i.v.). The animals were then ventilated with room air at a rate of 65 breaths per min. Airway inflation pressure was measured using a Statham pressure transducer (Gould Instruments, Cleveland, Ohio) connected to the tracheal cannula via a side-arm and recorded on a Grass Instruments recorder (Quincy, Mass.). The tidal volume (approximately 10 cc/kg) was adjusted to give a baseline inflation pressure of 8-10 cm H2 O at end inspiration. Animals were then allowed 20 min to stabilize.
Following the stabilization period, animals were given i.v. injections of pyrilamine (5 mg/kg), propranolol (0.1 mg/kg) and indomethacin (10 mg/kg) at 15, 10 and 5 min, respectively, prior to antigen challenge. This pretreatment results in an LT-dependent bronchoconstriction following antigert challenge, which was accomplished by i.v. administration of ovalbumin (10 mg/kg). Only one bronchoconstriction per animal was induced. End-inspiratory inflation pressure (in cm H2 O over baseline) was measured at 5 min post-antigen challenge. A mean value and standard error for the % inhibition of control bronchoconstriction in each drug-treated group was then calculated.

[6] = tested on: atherosclerotic lesions; conditions: WHHL rabbits, in words; cited from earlier work
[7] = tested on: LDL; conditions: in words; cited from earlier work
[8] = tested on: LDL; conditions: in words; cited from earlier work; remark: listed apart in the source

| Structure (SMILES) | % Inhibition LTB4 Synthesis [1] | % Inhibition of LTB4 [2] | inhibition at 1 µM [3] | other results |
| --- | --- | --- | --- | --- |
| Cc1oc(-c2cccc(F)c2)nc1CCOc1ccc(CN(O)C(N)=O)cc1 [Example 7] | 38% | 79% | 63% | – |
| Cc1oc(-c2cc(C(C)(C)C)c(O)c(C(C)(C)C)c2)nc1CCOc1ccc(CN(O)C(N)=O)cc1 [Example 10] | – | 44% | – | IC50 [4]: 180 nM; inhibition at 10 µM ([3]; 10 μM): 83% |
| Cc1oc(-c2ccccc2)nc1CCOc1ccc(CN(O)C(N)=O)cc1F [Example 12, 1-[3-Fluoro-4-[2-(5-methyl-2-phenyl-oxazol-4-yl)-ethoxy]-benzyl]-1-hydroxy-urea] | 58% | 52% | 71% | – |
| NC(=O)N(O)Cc1ccc(OCCc2csc(-c3ccc(C(F)(F)F)cc3)n2)cc1 [Example 19, 1-Hydroxy-1-[4-[2-[2-(4-trifluoromethyl-phenyl)-thiazol-4-yl]-ethoxy]-benzyl]-urea] | – | – | 57% | Bronchoconstriction % Inhibition [5]: 21% |
| CC(C)(Sc1cc(C(C)(C)C)c(O)c(C(C)(C)C)c1)Sc1cc(C(C)(C)C)c(O)c(C(C)(C)C)c1 [Probucol] | – | – | – | inhibition of formation of atherosclerotic lesions [6]: shown to inhibit the formation of atherosclerotic lesions in WHHL rabbits; inhibition of Cu+2 mediated oxidative modification of LDL [7]: inhibits both cell mediated and Cu^+2 mediated oxidative modification of LDL; inhibition of cell mediated oxidative modification of LDL [8]: inhibits both cell mediated and Cu^+2 mediated oxidative modification of LDL |
